The record followed here is publication PMC10215302 (Antibiotics, 2023).

Assay [1] has as its system S. aureus RN4220.
Assay [2] deals with S. aureus SA0077. Description: microbe, parasite or virus in culture. To be noted: Staphylococcus aureus.
Assay [3] relates to S. aureus RN4220. Description: microbe, parasite or virus in culture. To be noted: Staphylococcus aureus, RN4220, read-out: MIC values.
Assay [4] relates to S. aureus SA0085. Kind of assay: microbe, parasite or virus in culture. The note with it: Staphylococcus aureus.
In assay [5] the test system is S. aureus ATCC 29213. Description: microbe, parasite or virus in culture. The note with it: Staphylococcus aureus.
For assay [6], the system named is S. aureus SA0736. Description: microbe, parasite or virus in culture. To be noted: Staphylococcus aureus.
Assay [7] deals with S. aureus SA0422. Description: microbe, parasite or virus in culture. The note with it: Staphylococcus aureus.
The test system of assay [8] is S. aureus SA0085.
In assay [9] the test system is S. aureus SA0077.
Assay [10] concerns S. aureus SA0736.
Assay [11] deals with S. aureus derivative strains.
In assay [12] the test system is S. aureus SA0422.
In assay [13] the test system is S. aureus ATCC 29213.
[14] abbreviates: Table S1: RN4220 ∆ (strain with deletion in SACOL1927).
Setting [15] is: SA0077, read-out: MIC values, Table S1: SA0077 Abf (passages on antibiotic-free media).
The mark [16] stands for this setting: SA0077, read-out: MIC values, Table S1: SA0077 DAP (derivative after 40 passages on daptomycin).
Setting [17] is: SA0077, read-out: MIC values, Table S1: SA0077 VAN (derivative after 40 passages on vancomycin).
[18] abbreviates: SA0085, read-out: MIC values, Table S1: SA0085 Abf (passages on antibiotic-free media).
Setting [19] is: SA0085, read-out: MIC values, Table S1: SA0085 VAN (derivative after 40 passages on vancomycin).
The mark [20] stands for this setting: ATCC29213, read-out: MIC values.
[21] abbreviates: ATCC29213, read-out: MIC values, Table S1: ATCC 29213 DAP (derivative after 40 passages on daptomycin).
Where [22] appears, read: SA0736, read-out: MIC values, Table S1: SA0736 DAP-Y (40 passages on daptomycin, yellow colonies).
The mark [23] stands for this setting: SA0736, read-out: MIC values, Table S1: SA0736 VAN (derivative after 40 passages on vancomycin).
Setting [24] is: SA0422, read-out: MIC values, Table S1: SA0422 DAP (derivative after 40 passages on daptomycin).
Where [25] appears, read: SA0422, read-out: MIC values, Table S1: SA0422 VAN (derivative after 40 passages on vancomycin).

≈ marks a conversion by molar mass, not a printed value. Like-named read-outs stand apart in the source and are kept apart here.

Turning to `CO[C@@]1(NC(=O)Cc2cccs2)C(=O)N2C(C(=O)O)=C(COC(N)=O)CS[C@@H]21` [Cefoxitin], the MIC values in the assay with S. aureus RN4220 [1] (setting [14]) turned out to be 4 µg/mL (≈ 9.36 µM). The MIC was 256 µg/mL (≈ 599 µM) with S. aureus SA0077 [2] (SA0077, read-out: MIC values); 64 µg/mL (≈ 150 µM) with S. aureus SA0077 [2] (setting [15]); 128 µg/mL (≈ 299 µM) in the assay on S. aureus SA0077 [2] (setting [16]); 128 µg/mL (≈ 299 µM) in the assay with S. aureus SA0077 [2] (setting [17]); 4 µg/mL (≈ 9.36 µM) in the assay with S. aureus RN4220 [3]; 256 µg/mL (≈ 599 µM) with S. aureus SA0085 [4] (SA0085, read-out: MIC values). Further, the MIC in the assay with S. aureus SA0085 [4] (setting [18]) is 4 µg/mL (≈ 9.36 µM); in the assay with S. aureus SA0085 [4] (setting [19]), 4 µg/mL (≈ 9.36 µM); with S. aureus ATCC 29213 [5] (setting [20]), 4 µg/mL (≈ 9.36 µM); in the assay with S. aureus ATCC 29213 [5] (setting [21]) it was 2 µg/mL (≈ 4.68 µM); with S. aureus SA0736 [6] (SA0736, read-out: MIC values) it was 64 µg/mL (≈ 150 µM); in the assay on S. aureus SA0736 [6] (setting [22]), 8 µg/mL (≈ 18.7 µM). Also, the MIC in the assay on S. aureus SA0736 [6] (setting [23]) was found to be 128 µg/mL (≈ 299 µM); with S. aureus SA0422 [7] (SA0422, read-out: MIC values), 256 µg/mL (≈ 599 µM); with S. aureus SA0422 [7] (setting [24]) it was 64 µg/mL (≈ 150 µM).
In the assay on S. aureus RN4220 [1] (setting [14]), `CCO/N=C(\C(=O)N[C@@H]1C(=O)N2C(C(=O)[O-])=C(Sc3nc(-c4cc[n+](C)cc4)cs3)CS[C@H]12)c1nsc(N)n1` [Ceftaroline] came in with an MIC values of 0.5 µg/mL (≈ 0.827 µM). The MIC was determined as 1 µg/mL (≈ 1.65 µM) in the assay on S. aureus SA0077 [2] (SA0077, read-out: MIC values); 0.5 µg/mL (≈ 0.827 µM) in the assay on S. aureus SA0077 [2] (setting [16]); 0.5 µg/mL (≈ 0.827 µM) in the assay on S. aureus RN4220 [3]; 1 µg/mL (≈ 1.65 µM) in the assay on S. aureus SA0085 [4] (SA0085, read-out: MIC values); 0.5 µg/mL (≈ 0.827 µM) in the assay with S. aureus SA0085 [4] (setting [18]); 0.125 µg/mL (≈ 0.207 µM) in the assay with S. aureus SA0085 [4] (setting [19]). Moreover, the MIC stood at 0.125 µg/mL (≈ 0.207 µM) in the assay with S. aureus ATCC 29213 [5] (setting [20]); 0.25 µg/mL (≈ 0.413 µM) in the assay on S. aureus ATCC 29213 [5] (setting [21]); 1 µg/mL (≈ 1.65 µM) in the assay on S. aureus SA0736 [6] (SA0736, read-out: MIC values); 0.5 µg/mL (≈ 0.827 µM) with S. aureus SA0736 [6] (SA0736, read-out: MIC values, Table S1: SA0736 DAP-W (40 passages on daptomycin, white colonies)); 0.5 µg/mL (≈ 0.827 µM) with S. aureus SA0736 [6] (setting [22]); 0.5 µg/mL (≈ 0.827 µM) with S. aureus SA0736 [6] (setting [23]). For the same compound, the MIC with S. aureus SA0422 [7] (SA0422, read-out: MIC values) came out at 2 µg/mL (≈ 3.31 µM); in the assay on S. aureus SA0422 [7] (setting [24]) it was 0.5 µg/mL (≈ 0.827 µM); with S. aureus SA0422 [7] (setting [25]), 1 µg/mL (≈ 1.65 µM).
`Cc1onc(-c2ccccc2)c1C(=O)N[C@@H]1C(=O)N2[C@@H]1SC(C)(C)[C@@H]2C(=O)O` [Oxacillin]: in the assay on S. aureus RN4220 [1] (setting [14]), the MIC values is less than 0.5 µg/mL. Further, the MIC is 512 µg/mL (≈ 1280 µM) in the assay on S. aureus SA0077 [2] (SA0077, read-out: MIC values); 128 µg/mL (≈ 319 µM) with S. aureus SA0077 [2] (setting [15]); 256 µg/mL (≈ 638 µM) with S. aureus SA0077 [2] (setting [16]); 32 µg/mL (≈ 79.7 µM) in the assay on S. aureus SA0077 [2] (setting [17]); less than 0.5 µg/mL with S. aureus RN4220 [3]; 512 µg/mL (≈ 1280 µM) in the assay with S. aureus SA0085 [4] (SA0085, read-out: MIC before passaging, SA0085, before passaging in antibiotic-free media). The MIC in the assay on S. aureus SA0085 [4] (SA0085, read-out: MIC values) is 256 µg/mL (≈ 638 µM); in the assay with S. aureus SA0085 [4] (setting [18]) it was 1 µg/mL (≈ 2.49 µM); in the assay with S. aureus SA0085 [4] (setting [19]) it was 32 µg/mL (≈ 79.7 µM); with S. aureus ATCC 29213 [5] (setting [20]), less than 0.5 µg/mL; in the assay on S. aureus SA0736 [6] (SA0736, read-out: MIC values), 64 µg/mL (≈ 159 µM); with S. aureus SA0736 [6] (setting [22]), 16 µg/mL (≈ 39.9 µM). Moreover, the MIC with S. aureus SA0422 [7] (SA0422, read-out: MIC values) came to 512 µg/mL (≈ 1280 µM); with S. aureus SA0422 [7] (setting [24]) it was 2 µg/mL (≈ 4.98 µM); with S. aureus SA0422 [7] (setting [25]) it was 256 µg/mL (≈ 638 µM). Further, the “MIC after 40 passages in antibiotic-free media” value in the assay on S. aureus SA0085 [8] (SA0085, after 40 passages in antibiotic-free media (SCCmec excision)) was found to be 1 µg/mL (≈ 2.49 µM).
For telavancin [TLV], the MIC values against S. aureus RN4220 [1] (Table S1: RN4220 WT) is reported as 0.06 µg/mL; in the assay with S. aureus RN4220 [1] (setting [14]) it was 0.06 µg/mL; in the assay on S. aureus SA0077 [9] (Table S1: SA0077 Abf (passages on antibiotic-free media)) it was 0.03 µg/mL; in the assay with S. aureus SA0085 [8] (Table S1: SA0085 Abf (passages on antibiotic-free media)) it was 0.06 µg/mL; with S. aureus SA0736 [10] (Table S1: SA0736 DAP-W (40 passages on daptomycin, white colonies)) it was “.125 µg/mL”; in the assay on S. aureus SA0736 [10] (Table S1: SA0736 DAP-Y (40 passages on daptomycin, yellow colonies)), “.125 µg/mL”. Besides, the MIC stood at 0.125 µg/mL against S. aureus SA0077 [9] (SA0077, selecting agent DAP, passage 20); 0.125 µg/mL in the assay with S. aureus SA0077 [9] (SA0077, selecting agent DAP, passage 40); 0.125 µg/mL with S. aureus SA0077 [9] (SA0077, selecting agent VAN, passage 0); 0.06 µg/mL against S. aureus SA0077 [9] (SA0077, selecting agent VAN, passage 5); 0.5 µg/mL against S. aureus SA0077 [9] (SA0077, selecting agent VAN, passage 20); 1 µg/mL with S. aureus SA0077 [9] (SA0077, selecting agent VAN, passage 40). Also, the MIC in the assay with S. aureus SA0085 [8] (SA0085, selecting agent DAP, passage 5) was 0.06 µg/mL; against S. aureus SA0085 [8] (SA0085, selecting agent DAP, passage 20), 0.06 µg/mL; with S. aureus SA0085 [8] (SA0085, selecting agent DAP, passage 40), 0.25 µg/mL; against S. aureus SA0085 [8] (SA0085, selecting agent VAN, passage 0) it was 0.06 µg/mL; against S. aureus SA0085 [8] (SA0085, selecting agent VAN, passage 5) it was 0.06 µg/mL; against S. aureus SA0085 [8] (SA0085, selecting agent VAN, passage 20) it was 0.25 µg/mL. Besides, the MIC turned out to be 0.25 µg/mL against S. aureus SA0085 [8] (SA0085, selecting agent VAN, passage 40); 0.125 µg/mL with S. aureus SA0736 [10] (SA0736, selecting agent DAP, passage 5); 0.125 µg/mL against S. aureus SA0736 [10] (SA0736, selecting agent DAP, passage 20); 0.125 µg/mL with S. aureus SA0736 [10] (SA0736, selecting agent DAP, passage 40W (white colonies)); 0.125 µg/mL in the assay on S. aureus SA0736 [10] (SA0736, selecting agent DAP, passage 40Y (yellow colonies)); 0.25 µg/mL in the assay on S. aureus SA0736 [10] (SA0736, selecting agent VAN, passage 5). Moreover, the MIC in the assay with S. aureus SA0736 [10] (SA0736, selecting agent VAN, passage 20) is 0.5 µg/mL; against S. aureus SA0736 [10] (SA0736, selecting agent VAN, passage 40), 0.5 µg/mL; in assay [11] (daptomycin-selected derivative strains without WalK mutations (all except SA0422), susceptible) it was not above 0.125 µg/mL; against S. aureus SA0422 [12] (SA0422, selecting agent DAP, passage 5) it was 0.125 µg/mL; in the assay on S. aureus SA0422 [12] (SA0422, selecting agent DAP, passage 20) it was 0.25 µg/mL; against S. aureus SA0422 [12] (SA0422, selecting agent DAP, passage 40), 0.25 µg/mL. Also, the MIC is 0.125 µg/mL with S. aureus SA0422 [12] (SA0422, selecting agent VAN, passage 0); 0.25 µg/mL against S. aureus SA0422 [12] (SA0422, selecting agent VAN, passage 5); 0.5 µg/mL with S. aureus SA0422 [12] (SA0422, selecting agent VAN, passage 20); 1 µg/mL in the assay with S. aureus SA0422 [12] (SA0422, selecting agent VAN, passage 40); less than 0.03 µg/mL against S. aureus ATCC 29213 [13] (ATCC 29213, selecting agent DAP, passage 5); 0.125 µg/mL in the assay with S. aureus ATCC 29213 [13] (ATCC 29213, selecting agent DAP, passage 20). In addition, the MIC against S. aureus ATCC 29213 [13] (ATCC 29213, selecting agent DAP, passage 40) is 0.25 µg/mL; in the assay on S. aureus ATCC 29213 [13] (ATCC 29213, selecting agent VAN, passage 0) it was less than 0.03 µg/mL; in the assay on S. aureus ATCC 29213 [13] (ATCC 29213, selecting agent VAN, passage 5), less than 0.03 µg/mL; in the assay on S. aureus ATCC 29213 [13] (ATCC 29213, selecting agent VAN, passage 20) it was 0.125 µg/mL; in the assay with S. aureus ATCC 29213 [13] (ATCC 29213, selecting agent VAN, passage 40), 0.5 µg/mL. The “MIC by the end of daptomycin selection” value in [11] (derivatives, end of daptomycin selection) fell in the range of 0.125 to 0.25 µg/mL.
